Data set [1] can be described thus: Inhibition of C-terminal 6-His tagged Plasmodium falciparum M1 aminopeptidase (195 to 1085 residues) expressed in Escherichia coli BL21(DE3) cells using H-Leu-NHMec as substrate assessed as apparent inhibition constant preincubated for 10 mins followed by substrate addition by spectrofluorimetric analysis. Particulars: read-out: Ki(app).
Data set [2] can be described thus: Inhibition of C-terminal 6-His tagged Plasmodium falciparum M17 aminopeptidase (85 to 605 residues) expressed in Escherichia coli BL21 (DE3) cells using H-Leu-NHMec as substrate assessed as apparent inhibition constant preincubated for 10 mins followed by substrate addition by spectrofluorimetric analysis. Particulars: read-out: Ki(app).
In the next data set the test system is Plasmodium falciparum. The experiment in a line: Antiplasmodial activity against drug-sensitive Plasmodium falciparum 3D7 infected in Red blood cell assessed as growth inhibition measured after 72 hrs by LDH assay. It counts as functional, organism-based. Particulars: 3D7, Erythrocyte.
The target in data set [3] is Histone deacetylase 1 (Homo sapiens) (UniProt Q13547). As to the kind of experiment: Inhibition of HDAC1 (unknown origin).
Sequence of Histone deacetylase 1 (Homo sapiens) (Q13547 whole entry): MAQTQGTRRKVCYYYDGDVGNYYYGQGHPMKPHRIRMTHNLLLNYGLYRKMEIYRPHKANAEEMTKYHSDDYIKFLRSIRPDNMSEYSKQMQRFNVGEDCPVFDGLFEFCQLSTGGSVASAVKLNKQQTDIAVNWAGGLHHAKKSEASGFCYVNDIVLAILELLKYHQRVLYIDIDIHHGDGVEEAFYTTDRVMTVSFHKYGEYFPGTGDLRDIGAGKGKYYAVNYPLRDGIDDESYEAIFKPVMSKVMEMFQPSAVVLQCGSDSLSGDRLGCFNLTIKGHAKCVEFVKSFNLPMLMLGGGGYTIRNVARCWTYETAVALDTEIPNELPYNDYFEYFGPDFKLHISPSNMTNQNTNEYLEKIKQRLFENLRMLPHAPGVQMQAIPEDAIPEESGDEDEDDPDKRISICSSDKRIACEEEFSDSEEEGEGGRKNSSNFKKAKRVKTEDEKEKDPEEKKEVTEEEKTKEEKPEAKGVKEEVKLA
In data set [4] the target is Histone deacetylase 2 (Homo sapiens) (UniProt Q92769). As to the kind of experiment: Inhibition of HDAC2 (unknown origin).
Sequence of Histone deacetylase 2 (Homo sapiens) (Q92769 whole entry): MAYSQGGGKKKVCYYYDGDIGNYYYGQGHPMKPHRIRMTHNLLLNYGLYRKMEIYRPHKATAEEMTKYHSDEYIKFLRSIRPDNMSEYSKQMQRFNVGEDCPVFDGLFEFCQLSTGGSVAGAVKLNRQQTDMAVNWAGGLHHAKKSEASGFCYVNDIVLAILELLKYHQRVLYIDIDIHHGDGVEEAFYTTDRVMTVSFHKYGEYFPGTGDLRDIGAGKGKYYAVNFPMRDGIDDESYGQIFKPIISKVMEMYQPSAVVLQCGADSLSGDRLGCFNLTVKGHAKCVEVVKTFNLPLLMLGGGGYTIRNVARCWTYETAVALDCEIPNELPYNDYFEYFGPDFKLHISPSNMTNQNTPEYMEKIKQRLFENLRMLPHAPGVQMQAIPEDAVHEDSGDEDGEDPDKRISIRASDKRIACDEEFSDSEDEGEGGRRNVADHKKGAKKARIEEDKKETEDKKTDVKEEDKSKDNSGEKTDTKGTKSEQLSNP
For data set [5], the target named is Histone deacetylase 5 (Homo sapiens) (UniProt Q9UQL6). As to the kind of experiment: Inhibition of HDAC5 (unknown origin).
Sequence of Histone deacetylase 5 (Homo sapiens) (Q9UQL6 whole entry): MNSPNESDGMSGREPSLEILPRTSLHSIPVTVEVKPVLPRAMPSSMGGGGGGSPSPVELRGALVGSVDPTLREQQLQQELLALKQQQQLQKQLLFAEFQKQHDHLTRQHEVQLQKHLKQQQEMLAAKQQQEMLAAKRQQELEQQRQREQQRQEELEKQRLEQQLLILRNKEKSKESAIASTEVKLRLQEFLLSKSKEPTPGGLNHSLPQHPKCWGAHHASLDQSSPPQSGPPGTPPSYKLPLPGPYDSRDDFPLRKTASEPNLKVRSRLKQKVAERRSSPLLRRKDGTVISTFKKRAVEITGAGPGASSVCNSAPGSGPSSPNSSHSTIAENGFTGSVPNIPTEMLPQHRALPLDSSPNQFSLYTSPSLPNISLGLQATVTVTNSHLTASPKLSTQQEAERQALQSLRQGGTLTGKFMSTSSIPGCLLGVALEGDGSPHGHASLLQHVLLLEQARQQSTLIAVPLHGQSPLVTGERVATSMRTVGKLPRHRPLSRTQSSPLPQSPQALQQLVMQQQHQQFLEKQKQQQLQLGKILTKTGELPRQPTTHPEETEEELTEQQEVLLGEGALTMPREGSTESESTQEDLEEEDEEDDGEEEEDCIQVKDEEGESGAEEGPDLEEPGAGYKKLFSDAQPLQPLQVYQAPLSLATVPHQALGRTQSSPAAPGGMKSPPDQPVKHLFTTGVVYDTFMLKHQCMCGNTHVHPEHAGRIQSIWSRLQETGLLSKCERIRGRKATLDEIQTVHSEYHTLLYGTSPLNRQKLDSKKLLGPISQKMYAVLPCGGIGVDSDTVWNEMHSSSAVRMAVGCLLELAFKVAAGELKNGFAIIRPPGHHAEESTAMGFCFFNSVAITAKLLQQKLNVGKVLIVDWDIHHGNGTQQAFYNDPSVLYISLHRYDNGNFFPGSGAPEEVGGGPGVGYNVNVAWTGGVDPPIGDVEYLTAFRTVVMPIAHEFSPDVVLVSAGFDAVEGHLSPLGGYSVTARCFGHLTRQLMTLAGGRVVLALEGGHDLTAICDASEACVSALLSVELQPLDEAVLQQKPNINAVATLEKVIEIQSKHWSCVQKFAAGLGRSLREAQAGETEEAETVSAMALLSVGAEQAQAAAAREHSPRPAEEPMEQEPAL
In data set [6] the target is T1, Histone deacetylase 7 (Homo sapiens) (UniProt Q8WUI4).
T1 sequence (whole entry): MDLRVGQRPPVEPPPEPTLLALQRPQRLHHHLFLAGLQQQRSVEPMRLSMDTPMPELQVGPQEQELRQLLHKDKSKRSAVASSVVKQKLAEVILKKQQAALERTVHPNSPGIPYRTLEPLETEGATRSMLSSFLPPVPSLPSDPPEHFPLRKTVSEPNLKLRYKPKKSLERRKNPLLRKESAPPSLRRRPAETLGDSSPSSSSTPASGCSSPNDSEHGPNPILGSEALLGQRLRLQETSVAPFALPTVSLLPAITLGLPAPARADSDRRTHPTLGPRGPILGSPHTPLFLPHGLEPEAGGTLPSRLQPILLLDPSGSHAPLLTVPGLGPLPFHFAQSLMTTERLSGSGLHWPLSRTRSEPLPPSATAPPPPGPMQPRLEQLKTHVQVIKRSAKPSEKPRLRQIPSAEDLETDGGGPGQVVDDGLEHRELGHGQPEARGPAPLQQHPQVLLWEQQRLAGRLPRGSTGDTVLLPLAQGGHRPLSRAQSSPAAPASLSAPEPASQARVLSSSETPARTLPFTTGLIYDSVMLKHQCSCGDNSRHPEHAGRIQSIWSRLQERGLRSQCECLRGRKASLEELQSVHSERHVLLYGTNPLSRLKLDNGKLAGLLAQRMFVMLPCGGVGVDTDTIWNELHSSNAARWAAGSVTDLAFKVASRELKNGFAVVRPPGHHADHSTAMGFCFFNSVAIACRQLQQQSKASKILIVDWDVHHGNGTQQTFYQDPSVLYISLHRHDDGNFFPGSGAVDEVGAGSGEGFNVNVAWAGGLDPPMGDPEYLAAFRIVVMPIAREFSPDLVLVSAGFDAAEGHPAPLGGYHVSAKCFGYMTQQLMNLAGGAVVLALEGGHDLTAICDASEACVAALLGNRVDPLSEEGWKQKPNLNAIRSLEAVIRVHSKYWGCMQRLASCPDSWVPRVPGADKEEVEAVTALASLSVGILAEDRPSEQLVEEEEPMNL
The experiment in a line: Inhibition of HDAC7 (unknown origin).

The target of data set [7] is T2, Histone deacetylase 8 (Homo sapiens) (UniProt Q9BY41).
T2 sequence (whole entry): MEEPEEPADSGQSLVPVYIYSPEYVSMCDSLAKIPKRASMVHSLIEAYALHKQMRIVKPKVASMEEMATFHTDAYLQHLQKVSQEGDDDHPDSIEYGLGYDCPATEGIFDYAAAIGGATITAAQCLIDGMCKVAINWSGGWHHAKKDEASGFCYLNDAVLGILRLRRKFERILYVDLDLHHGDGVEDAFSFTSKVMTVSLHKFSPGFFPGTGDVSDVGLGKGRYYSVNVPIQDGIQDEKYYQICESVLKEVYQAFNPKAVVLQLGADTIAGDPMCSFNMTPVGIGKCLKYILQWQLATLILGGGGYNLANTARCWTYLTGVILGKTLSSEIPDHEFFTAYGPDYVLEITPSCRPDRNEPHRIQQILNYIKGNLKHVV
The experiment in a line: Inhibition of HDAC8 (unknown origin).

In data set [8] the target is Histone deacetylase 9 (Homo sapiens) (UniProt Q9UKV0). As to the kind of experiment: Inhibition of HDAC9 (unknown origin).
For data set [9], the target named is T3, Polyamine deacetylase HDAC10 (Homo sapiens) (UniProt Q969S8).
T3 sequence (whole entry): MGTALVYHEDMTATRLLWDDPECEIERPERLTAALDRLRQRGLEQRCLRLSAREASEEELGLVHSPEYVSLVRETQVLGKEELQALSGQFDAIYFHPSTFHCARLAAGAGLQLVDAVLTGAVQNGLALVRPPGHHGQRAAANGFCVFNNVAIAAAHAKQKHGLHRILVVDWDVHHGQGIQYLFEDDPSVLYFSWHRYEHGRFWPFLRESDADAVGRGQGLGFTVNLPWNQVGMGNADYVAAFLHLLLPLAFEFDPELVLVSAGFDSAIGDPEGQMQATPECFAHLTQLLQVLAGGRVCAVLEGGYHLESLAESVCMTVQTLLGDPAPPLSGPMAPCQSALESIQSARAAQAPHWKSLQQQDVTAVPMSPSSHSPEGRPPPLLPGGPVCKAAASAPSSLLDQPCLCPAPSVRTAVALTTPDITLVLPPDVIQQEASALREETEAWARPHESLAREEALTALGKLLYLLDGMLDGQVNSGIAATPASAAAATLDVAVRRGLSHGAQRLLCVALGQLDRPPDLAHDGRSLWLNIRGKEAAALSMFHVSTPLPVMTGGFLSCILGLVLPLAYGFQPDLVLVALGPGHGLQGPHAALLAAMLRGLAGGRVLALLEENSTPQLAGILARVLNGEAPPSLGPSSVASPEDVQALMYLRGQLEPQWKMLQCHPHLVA
As to the kind of experiment: Inhibition of HDAC10 (unknown origin).

For data set [10], the target named is Endoplasmic reticulum aminopeptidase 1 (Homo sapiens) (UniProt Q9NZ08). As to the kind of experiment: Inhibition of ERAP1 (unknown origin).
Sequence of Endoplasmic reticulum aminopeptidase 1 (Homo sapiens) (Q9NZ08 whole entry): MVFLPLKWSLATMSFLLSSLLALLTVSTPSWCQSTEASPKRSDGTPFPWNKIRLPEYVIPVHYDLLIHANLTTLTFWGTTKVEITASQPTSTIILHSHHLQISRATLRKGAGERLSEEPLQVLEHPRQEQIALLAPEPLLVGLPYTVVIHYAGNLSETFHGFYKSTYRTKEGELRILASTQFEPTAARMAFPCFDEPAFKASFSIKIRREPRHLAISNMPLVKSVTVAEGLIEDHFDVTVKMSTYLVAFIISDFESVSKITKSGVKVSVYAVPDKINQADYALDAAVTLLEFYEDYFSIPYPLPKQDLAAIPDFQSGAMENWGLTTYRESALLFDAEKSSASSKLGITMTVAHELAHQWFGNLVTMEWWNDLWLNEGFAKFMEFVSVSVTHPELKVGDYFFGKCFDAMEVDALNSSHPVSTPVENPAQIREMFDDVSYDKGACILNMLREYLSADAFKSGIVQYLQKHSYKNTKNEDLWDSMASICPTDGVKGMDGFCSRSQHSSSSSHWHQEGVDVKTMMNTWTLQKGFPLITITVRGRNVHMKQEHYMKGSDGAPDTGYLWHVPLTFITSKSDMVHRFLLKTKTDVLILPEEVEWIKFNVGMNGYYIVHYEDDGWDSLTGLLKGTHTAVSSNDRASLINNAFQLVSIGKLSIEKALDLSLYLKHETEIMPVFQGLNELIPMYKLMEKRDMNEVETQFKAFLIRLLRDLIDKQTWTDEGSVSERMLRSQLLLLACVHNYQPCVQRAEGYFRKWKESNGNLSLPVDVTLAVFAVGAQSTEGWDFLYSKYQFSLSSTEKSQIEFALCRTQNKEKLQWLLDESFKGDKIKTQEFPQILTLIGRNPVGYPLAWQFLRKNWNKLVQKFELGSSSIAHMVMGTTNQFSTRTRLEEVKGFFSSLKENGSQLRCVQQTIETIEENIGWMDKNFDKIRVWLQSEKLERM
Data set [11] has as its target Endoplasmic reticulum aminopeptidase 2 (Homo sapiens) (UniProt Q6P179). As to the kind of experiment: Inhibition of ERAP2 (unknown origin).
Data set [12] concerns the target Neutrophil collagenase (Homo sapiens) (UniProt P22894). The experiment in a line: Inhibition of MMP8 (unknown origin) at 10 uM relative to control.
In data set [13] the target is Matrix metalloproteinase-9 (Homo sapiens) (UniProt P14780). The experiment in a line: Inhibition of MMP9 (unknown origin) at 10 uM relative to control.
Sequence of Matrix metalloproteinase-9 (Homo sapiens) (P14780 whole entry): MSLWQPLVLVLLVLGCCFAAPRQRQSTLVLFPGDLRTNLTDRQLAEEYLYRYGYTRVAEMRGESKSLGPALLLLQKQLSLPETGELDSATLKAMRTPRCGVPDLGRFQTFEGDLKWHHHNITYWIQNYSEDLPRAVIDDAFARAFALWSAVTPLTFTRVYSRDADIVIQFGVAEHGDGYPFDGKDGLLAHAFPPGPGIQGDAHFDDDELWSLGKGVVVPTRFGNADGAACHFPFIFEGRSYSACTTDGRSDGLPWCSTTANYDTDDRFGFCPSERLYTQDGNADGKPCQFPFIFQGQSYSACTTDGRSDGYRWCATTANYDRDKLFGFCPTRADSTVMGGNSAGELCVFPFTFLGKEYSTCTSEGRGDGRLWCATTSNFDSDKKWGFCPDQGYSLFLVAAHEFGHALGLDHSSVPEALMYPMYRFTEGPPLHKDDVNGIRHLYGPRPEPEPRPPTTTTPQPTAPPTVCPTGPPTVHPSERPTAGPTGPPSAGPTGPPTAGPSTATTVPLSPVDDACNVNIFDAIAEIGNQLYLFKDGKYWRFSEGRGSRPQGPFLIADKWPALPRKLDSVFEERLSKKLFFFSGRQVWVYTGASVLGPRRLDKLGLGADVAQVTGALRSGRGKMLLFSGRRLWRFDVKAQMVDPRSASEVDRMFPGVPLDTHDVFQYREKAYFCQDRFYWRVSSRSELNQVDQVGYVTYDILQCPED
Data set [14] has as its target Collagenase 3 (Homo sapiens) (UniProt P45452). The experiment in a line: Inhibition of MMP13 (unknown origin) at 10 uM relative to control.
The target of data set [15] is Matrix metalloproteinase-15 (Homo sapiens) (UniProt P51511). As to the kind of experiment: Inhibition of MMP15 (unknown origin) at 10 uM relative to control.
Data set [16] has as its target Matrix metalloproteinase-24 (Homo sapiens) (UniProt Q9Y5R2). As to the kind of experiment: Inhibition of MMP24 (unknown origin) at 10 uM relative to control.
Data set [17] can be described thus: Kinetic solubility of the compound in 0.01 M HCL at pH 2.0 measured after 30 mins by nephelometric analysis. Type of data set: physicochemical. Particulars: read-out: Kinetic_solubility.
The nature of data set [18]: Kinetic solubility of the compound in phosphate buffer at pH 6.5 measured after 30 mins by nephelometric analysis. It counts as physicochemical. Conditions: read-out: Kinetic_solubility.
A short description of data set [19]: Metabolic stability in human liver microsomes assessed as half life measured for 60 mins in presence of NADPH. Type of data set: ADME, Microsome.
Data set [20] is described as follows: Metabolic stability in mouse liver microsomes assessed as half life measured for 60 mins in presence of NADPH. It counts as ADME, Microsome.
The nature of data set [21]: Metabolic stability in human liver microsomes assessed as intrinsic clearance measured per mg protein for 60 mins in presence of NADPH. Type of data set: ADME, Microsome. Conditions: read-out: CLH.
Data set [22] in a line: Metabolic stability in mouse liver microsomes assessed as intrinsic clearance measured per mg protein for 60 mins in presence of NADPH. It counts as ADME, Microsome. Particulars: read-out: CLH.
The test system of a further data set is HEK293. The experiment in a line: Cytotoxicity against HEK293 cells assessed as inhibition of cell growth at 40 uM. Type of data set: toxicity, cell-based. Conditions: human, hek293, 40 µM.

Here are results for one molecule from ChEMBL document CHEMBL5325407, “Structure-based development of potent Plasmodium falciparum M1 and M17 aminopeptidase selective and dual inhibitors via S1'-region optimisation” (Eur J Med Chem, 2023).

In brackets after ≈: the same amount, converted by molar mass. Activity calls are given as the source filed them. The rule behind the calls is not given here.

Sequence of Neutrophil collagenase (Homo sapiens) (P22894 101-467 limits assumed): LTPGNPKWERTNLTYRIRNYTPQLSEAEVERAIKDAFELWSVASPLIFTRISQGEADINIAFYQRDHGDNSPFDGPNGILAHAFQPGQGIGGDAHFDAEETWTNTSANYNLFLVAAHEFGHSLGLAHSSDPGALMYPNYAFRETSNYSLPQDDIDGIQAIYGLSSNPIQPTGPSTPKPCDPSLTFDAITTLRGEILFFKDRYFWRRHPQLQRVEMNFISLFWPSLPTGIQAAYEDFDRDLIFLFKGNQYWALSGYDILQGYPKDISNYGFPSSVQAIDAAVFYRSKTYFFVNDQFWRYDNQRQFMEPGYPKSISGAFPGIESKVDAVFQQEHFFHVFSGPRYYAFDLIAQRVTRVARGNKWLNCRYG
Sequence of Matrix metalloproteinase-24 (Homo sapiens) (Q9Y5R2 whole entry): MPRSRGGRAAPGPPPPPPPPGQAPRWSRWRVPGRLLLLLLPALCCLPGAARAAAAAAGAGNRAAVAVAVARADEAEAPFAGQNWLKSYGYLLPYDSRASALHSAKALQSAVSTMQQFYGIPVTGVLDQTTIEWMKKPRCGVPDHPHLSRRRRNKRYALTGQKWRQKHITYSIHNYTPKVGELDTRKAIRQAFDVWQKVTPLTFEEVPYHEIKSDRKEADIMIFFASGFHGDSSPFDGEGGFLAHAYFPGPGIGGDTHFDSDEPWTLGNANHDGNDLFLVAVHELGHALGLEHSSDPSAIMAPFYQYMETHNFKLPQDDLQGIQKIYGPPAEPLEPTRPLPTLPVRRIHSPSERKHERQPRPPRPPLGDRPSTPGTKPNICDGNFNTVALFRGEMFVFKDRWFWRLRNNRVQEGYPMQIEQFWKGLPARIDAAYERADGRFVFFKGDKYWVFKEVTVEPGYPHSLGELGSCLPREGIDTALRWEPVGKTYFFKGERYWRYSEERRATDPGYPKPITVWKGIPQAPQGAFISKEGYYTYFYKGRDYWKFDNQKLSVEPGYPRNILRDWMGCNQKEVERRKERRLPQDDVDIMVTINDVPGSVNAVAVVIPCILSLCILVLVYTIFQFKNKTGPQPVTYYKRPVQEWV

As for `O=C(CNc1ccccc1)NC(C(=O)NO)c1ccc(-c2cc(F)c(F)c(F)c2)cc1` (centres undefined), the Ki in data set [1] was determined as 66 nM; in [2] it was 57 nM. For the same molecule, in the data set with Plasmodium falciparum, the concentration giving a half-maximal response (EC50) is 170 nM. Moreover, the inhibition entry in [3], in data set [4], in [5], in data set [6], in data set [7] and in [8] was “inactive” each time. In addition, the inhibition entry in [9], in data set [10] and in data set [11] was “inactive” throughout. Also, the inhibition in data set [12], in data set [13], in data set [14], in data set [15] and in [16] was greater than 50% in each case. In addition, the solubility kinetic at 0.5 h was found to be 3.1 µg/mL (≈ 7.22 µM) in [17] and 1.6 µg/mL (≈ 3.73 µM) in data set [18]. Moreover, the half-life in data set [19] turned out to be 1.77 h; in data set [20] it was 1.75 h. Also, the microsomal CLint in [21] amounted to 16 µL/min/mg; in data set [22], 17 µL/min/mg. For the same molecule, the Activity result in the data set with HEK293 is recorded as “Non-Toxic”.
